“And” between values parts separate entries of the source, which are not always exact repeats. Equal values may be shown once.
Conditions: Fluid (supercritical or subcritical phases); for viscosity: Vibrating wire viscometry; for mass density: Buoyancy - hydrostatic balance with magnetic suspension - one sinker

CCCC [butane]
Conditions	mass density	viscosity
428.09 K, 5150.2 kPa	–	0.04428 mPa·s
428.1 K, 796.14 kPa	14.038 kg/m3	0.01066 mPa·s
428.1 K, 796.19 kPa	14.041 kg/m3	0.01066 mPa·s
428.1 K, 904.9 kPa	16.138 kg/m3	0.01069 mPa·s
428.1 K, 1964.1 kPa	40.163 kg/m3	0.01117 mPa·s
428.1 K, 4625.9 kPa	341.66 kg/m3	0.04038 mPa·s
428.11 K, 131.61 kPa	2.1741 kg/m3	0.01052 mPa·s
428.11 K, 131.64 kPa	2.1741 kg/m3	0.01052 mPa·s
428.11 K, 904.86 kPa	16.141 kg/m3	0.01069 mPa·s
428.11 K, 1964.3 kPa	40.167 kg/m3	0.01118 mPa·s
428.11 K, 4626.6 kPa	341.66 kg/m3	0.04035 mPa·s
428.11 K, 4626.8 kPa	341.65 kg/m3	0.04033 mPa·s
428.12 K, 685.03 kPa	11.939 kg/m3	0.01063 mPa·s
428.12 K, 2306.2 kPa	49.889 kg/m3 and 49.887 kg/m3	0.01144 mPa·s
428.12 K, 3964.9 kPa	218.37 kg/m3	0.02262 mPa·s
428.12 K, 3984.8 kPa	246.5 kg/m3	0.02576 mPa·s
428.12 K, 3984.9 kPa	246.49 kg/m3	0.02577 mPa·s
428.13 K, 480.91 kPa	8.2126 kg/m3	0.01059 mPa·s
428.13 K, 578.67 kPa	9.9774 kg/m3	0.01061 mPa·s
428.13 K, 684.54 kPa	11.929 kg/m3	0.01063 mPa·s
428.13 K, 2624.6 kPa	60.353 kg/m3	0.01177 mPa·s
428.13 K, 2624.7 kPa	60.36 kg/m3	0.01177 mPa·s
428.13 K, 2862.9 kPa	69.476 kg/m3	0.01209 mPa·s
428.13 K, 3655.2 kPa	119.22 kg/m3	0.01443 mPa·s
428.13 K, 3964.8 kPa	218.33 kg/m3	0.02263 mPa·s
428.13 K, 3990.1 kPa	251.58 kg/m3 and 251.63 kg/m3	0.02637 mPa·s and 0.02638 mPa·s
428.13 K, 5948.9 kPa	378 kg/m3	0.04846 mPa·s
428.13 K, 5949.6 kPa	378.01 kg/m3 and 378.02 kg/m3	0.04837 mPa·s and 0.04844 mPa·s
428.14 K, 480.81 kPa	8.2112 kg/m3	0.01059 mPa·s
428.14 K, 578.76 kPa	9.9803 kg/m3	0.01061 mPa·s
428.14 K, 1041.2 kPa	18.856 kg/m3	0.01073 mPa·s
428.14 K, 2862.8 kPa	69.471 kg/m3	0.01209 mPa·s
428.14 K, 3427.1 kPa	99.322 kg/m3	0.01338 mPa·s
428.14 K, 3655.7 kPa	119.23 kg/m3	0.01444 mPa·s
428.14 K, 4145.9 kPa	304.6 kg/m3	0.03374 mPa·s
428.14 K, 4146.2 kPa	304.61 kg/m3	0.03373 mPa·s
428.14 K, 30018 kPa	498.2 kg/m3	0.09505 mPa·s
428.14 K, 30022 kPa	498.2 kg/m3	0.09486 mPa·s
428.14 K, 30023 kPa	498.21 kg/m3	0.09498 mPa·s
428.15 K, 1040.7 kPa	18.847 kg/m3	0.01073 mPa·s
428.15 K, 3263.7 kPa	88.854 kg/m3	0.01288 mPa·s
428.15 K, 3427.2 kPa	99.316 kg/m3	0.01337 mPa·s
428.15 K, 4067.3 kPa	289 kg/m3	0.03129 mPa·s
428.15 K, 4067.5 kPa	288.98 kg/m3	0.03132 mPa·s
428.15 K, 12773 kPa	440.28 kg/m3	0.06754 mPa·s
428.15 K, 17075 kPa	460.12 kg/m3	0.07551 mPa·s
428.15 K, 17077 kPa	460.12 kg/m3	0.07561 mPa·s
428.16 K, 62.1 kPa	1.0176 kg/m3	0.01051 mPa·s
428.16 K, 3263.8 kPa	88.856 kg/m3	0.01289 mPa·s
428.16 K, 7467.1 kPa	399.68 kg/m3	0.05418 mPa·s
428.16 K, 7467.5 kPa	399.69 kg/m3	0.05413 mPa·s
428.16 K, 9661.1 kPa	420.21 kg/m3	0.06045 mPa·s
428.16 K, 9662.3 kPa	420.22 kg/m3	0.06047 mPa·s
428.16 K, 12732 kPa	440.05 kg/m3	0.06741 mPa·s
428.16 K, 12735 kPa	440.06 kg/m3	0.06744 mPa·s
428.17 K, 62.1 kPa	1.0183 kg/m3	0.01051 mPa·s
428.17 K, 3976.1 kPa	230.45 kg/m3	0.02394 mPa·s
428.17 K, 7466.2 kPa	399.67 kg/m3	0.05411 mPa·s
428.18 K, 62.1 kPa	1.0176 kg/m3	0.01051 mPa·s
428.18 K, 1098.5 kPa	20.025 kg/m3	0.01075 mPa·s
428.18 K, 1099.1 kPa	20.038 kg/m3	0.01075 mPa·s
428.18 K, 3790.9 kPa	137.62 kg/m3	0.01558 mPa·s
428.18 K, 3953.3 kPa	199.18 kg/m3	0.02063 mPa·s
428.18 K, 3976.3 kPa	230.48 kg/m3	0.02395 mPa·s
428.18 K, 4312 kPa	322.22 kg/m3	0.03673 mPa·s
428.18 K, 4312.4 kPa	322.24 kg/m3 and 322.25 kg/m3	0.03673 mPa·s and 0.03668 mPa·s
428.19 K, 3883.8 kPa	159.22 kg/m3	0.01712 mPa·s
428.19 K, 3884.1 kPa	159.21 kg/m3	0.01712 mPa·s
428.19 K, 3938.7 kPa	185.24 kg/m3	0.01931 mPa·s
428.19 K, 3939.2 kPa	185.3 kg/m3	0.01933 mPa·s
428.19 K, 3953.5 kPa	199.12 kg/m3	0.02064 mPa·s
428.2 K, 3793.8 kPa	137.58 kg/m3	0.01557 mPa·s
428.2 K, 4030 kPa	274.89 kg/m3	0.02934 mPa·s
428.2 K, 4030.1 kPa	274.9 kg/m3	0.02934 mPa·s
428.2 K, 22973 kPa	480.02 kg/m3	0.08495 mPa·s
428.21 K, 1539.8 kPa	29.634 kg/m3	0.01094 mPa·s
428.21 K, 1540.1 kPa	29.642 kg/m3	0.01093 mPa·s
428.21 K, 22974 kPa	480.02 kg/m3	0.08503 mPa·s and 0.08492 mPa·s
428.22 K, 3107.8 kPa	80.455 kg/m3	0.01252 mPa·s
428.23 K, 3108.6 kPa	80.486 kg/m3	0.01253 mPa·s
428.34 K, 3805.1 kPa	138.83 kg/m3	0.01567 mPa·s
428.39 K, 3806.5 kPa	138.8 kg/m3	0.01569 mPa·s
448.09 K, 4846.2 kPa	174.16 kg/m3	0.01886 mPa·s
448.11 K, 5054.5 kPa	201.47 kg/m3	0.02122 mPa·s
448.11 K, 5054.8 kPa	201.47 kg/m3	0.02124 mPa·s
448.11 K, 6144.8 kPa	304.18 kg/m3	0.0341 mPa·s
448.11 K, 6145 kPa	304.17 kg/m3	0.0341 mPa·s
448.13 K, 4161.6 kPa	114.81 kg/m3	0.01481 mPa·s and 0.01479 mPa·s
448.13 K, 4847 kPa	174.1 kg/m3	0.01885 mPa·s
448.13 K, 5203.2 kPa	222.02 kg/m3	0.02331 mPa·s
448.13 K, 5203.5 kPa	222.03 kg/m3	0.02333 mPa·s
448.13 K, 7189.8 kPa	340.36 kg/m3	0.04055 mPa·s
448.14 K, 7191 kPa	340.37 kg/m3	0.04061 mPa·s
448.14 K, 18184 kPa	440.74 kg/m3	0.06811 mPa·s
448.14 K, 18187 kPa	440.74 kg/m3	0.06813 mPa·s
448.14 K, 29460 kPa	478.91 kg/m3	0.08497 mPa·s
448.15 K, 220.17 kPa	3.4915 kg/m3	0.01102 mPa·s
448.15 K, 618.43 kPa	10.135 kg/m3	0.0111 mPa·s
448.15 K, 618.6 kPa	10.141 kg/m3	0.01109 mPa·s
448.15 K, 807.6 kPa	13.453 kg/m3	0.01114 mPa·s
448.15 K, 1661.9 kPa	30.078 kg/m3	0.01146 mPa·s
448.15 K, 3073.3 kPa	66.943 kg/m3	0.01257 mPa·s
448.15 K, 5551.9 kPa	263.05 kg/m3	0.02811 mPa·s
448.15 K, 5553.7 kPa	263.02 kg/m3	0.02811 mPa·s
448.15 K, 11528 kPa	400.23 kg/m3	0.05478 mPa·s
448.15 K, 11529 kPa	400.23 kg/m3	0.05477 mPa·s
448.15 K, 14319 kPa	420.46 kg/m3	0.06101 mPa·s
448.15 K, 29472 kPa	478.91 kg/m3	0.08489 mPa·s
448.16 K, 220.38 kPa	3.4965 kg/m3	0.01101 mPa·s
448.16 K, 430.17 kPa	6.9362 kg/m3	0.01106 mPa·s
448.16 K, 431.02 kPa	6.95 kg/m3	0.01106 mPa·s
448.16 K, 508.5 kPa	8.2591 kg/m3	0.01107 mPa·s
448.16 K, 509.69 kPa	8.28 kg/m3	0.01107 mPa·s
448.16 K, 807.76 kPa	13.456 kg/m3	0.01115 mPa·s
448.16 K, 1662.2 kPa	30.086 kg/m3	0.01146 mPa·s
448.16 K, 2073.7 kPa	39.305 kg/m3	0.01169 mPa·s
448.16 K, 2511.8 kPa	50.321 kg/m3	0.01201 mPa·s
448.16 K, 2512.1 kPa	50.329 kg/m3	0.012 mPa·s
448.16 K, 3073.3 kPa	66.941 kg/m3	0.01257 mPa·s
448.16 K, 6551.1 kPa	321.12 kg/m3	0.03695 mPa·s
448.16 K, 6551.4 kPa	321.12 kg/m3	0.03694 mPa·s
448.16 K, 8139.4 kPa	359.98 kg/m3	0.04474 mPa·s
448.16 K, 8140.6 kPa	359.99 kg/m3	0.04466 mPa·s
448.16 K, 23152 kPa	460.08 kg/m3	0.07601 mPa·s
448.17 K, 1158.4 kPa	19.932 kg/m3	0.01125 mPa·s
448.17 K, 2073 kPa	39.287 kg/m3	0.01169 mPa·s
448.17 K, 4498.3 kPa	138.72 kg/m3	0.01627 mPa·s
448.17 K, 5346.6 kPa	240.34 kg/m3	0.02533 mPa·s
448.17 K, 9537.4 kPa	380.12 kg/m3	0.04948 mPa·s
448.17 K, 9538.6 kPa	380.13 kg/m3	0.0494 mPa·s
448.17 K, 14321 kPa	420.46 kg/m3	0.06093 mPa·s
448.17 K, 23154 kPa	460.09 kg/m3	0.07593 mPa·s
448.18 K, 3433.7 kPa	79.735 kg/m3	0.01307 mPa·s
448.18 K, 3433.9 kPa	79.739 kg/m3	0.01308 mPa·s
448.18 K, 3747.8 kPa	92.905 kg/m3	0.01367 mPa·s
448.18 K, 4498.1 kPa	138.68 kg/m3	0.01625 mPa·s
448.18 K, 5346.7 kPa	240.34 kg/m3	0.02534 mPa·s
448.19 K, 3747.9 kPa	92.91 kg/m3	0.01367 mPa·s
448.23 K, 4727 kPa	160.07 kg/m3	0.01777 mPa·s
448.23 K, 4727.1 kPa	160.07 kg/m3	0.01776 mPa·s
448.27 K, 5784.6 kPa	281.65 kg/m3	0.03063 mPa·s
448.28 K, 5785.1 kPa	281.66 kg/m3	0.03066 mPa·s
